Experimental data as given in ChEMBL document CHEMBL1140693, “4,5-diarylisoxazole Hsp90 chaperone inhibitors: potential therapeutic agents for the treatment of cancer” (J Med Chem, 2008).

Legend:
Heat shock protein HSP90 = Heat shock protein HSP90 (Homo sapiens, UniProt P07900+P08238)
Description: Displacement of fluorescent labelled VER-00051001 from human Hsp90-beta by FP assay

HCT-116 [1] = assay: cells; conditions: Homo sapiens, HCT-116, 24 h
Description: Growth inhibition of human HCT116 cells after 24 hrs by SRB assay

[2] = Growth inhibition of human U87MG cells by SRB assay; type: functional, U-87MG ATCC; conditions: U-87 MG
SK-MEL-28 = assay: Growth inhibition of human SKMel28 cells by SRB assay; type: functional
DU-145 = assay: Growth inhibition of human DU145 cells by SRB assay; type: functional
SF-268 = assay: Growth inhibition of human SF268 cells by SRB assay; type: functional
[3] = Growth inhibition of human PC3M cells by SRB assay; type: functional; conditions: PC-3M
[4] = AUClast in human HCT116 cells bearing NCr athymic mouse at 4 mg/kg, cassette dosing; type: ADME, organism-based, HCT-116; parameters: time 0 - last, dose 4 mg/kg; conditions: in vivo
[5] = Cmax in human HCT116 cells bearing NCr athymic mouse at 4 mg/kg, cassette dosing; type: ADME, organism-based, HCT-116; parameters: dose 4 mg/kg; conditions: in vivo
[6] = Apparent clearance in human HCT116 cells bearing NCr athymic mouse at 4 mg/kg, cassette dosing; type: ADME, organism-based, HCT-116; parameters: dose 4 mg/kg; conditions: in vivo
[7] = Apparent terminal-phase volume of distribution (Vz/F) in human HCT116 cells bearing NCr athymic mouse at 4 mg/kg, cassette dosing; conditions: in vivo
[8] = Terminal half life in human HCT116 cells bearing NCr athymic mouse at 4 mg/kg, cassette dosing; type: ADME, organism-based, HCT-116; parameters: dose 4 mg/kg; conditions: in vivo, read-out: t1/2 lambda z (converted)
[9] = Tmax in human HCT116 cells bearing NCr athymic mouse at 4 mg/kg, cassette dosing; type: ADME, organism-based, HCT-116; parameters: dose 4 mg/kg; conditions: in vivo
HCT-116 [10] = assay: Inhibition of tumor growth in human HCT116 cells bearing mouse assessed as tumor weight at 50 mg/kg, ip qd after 12 days relative to control; conditions: HCT-116, ip, 288 h

| SMILES | IC50 (Heat shock protein HSP90) [nM] | GI50 (HCT-116 [1]) [nM] | further results |
| --- | --- | --- | --- |
| CCNC(=O)c1[nH]nc(-c2cc(Cl)c(O)cc2O)c1-c1ccc(CN(CC)CC)cc1 | 146 | 315 | – |
| CCNC(=O)c1[nH]nc(-c2cc(Cl)c(O)cc2O)c1-c1ccc(CNC(=O)C[C@@H]2CCCN2)cc1 | 57 | 275 | – |
| CCNC(=O)c1noc(-c2cc(Cl)c(O)cc2O)c1-c1ccc(CN(C)C)cc1 | 18 | 69 | – |
| CCNC(=O)c1noc(-c2cc(Cl)c(O)cc2O)c1-c1ccc(CN2CCCCC2)cc1 | 19 | 61 | – |
| CCNC(=O)c1noc(-c2cc(CC)c(O)cc2OC)c1-c1ccc(CN2CCOCC2)cc1 | 540 | 2150 | – |
| CCNC(=O)c1noc(-c2cc(CCc3cccc(F)c3)c(O)cc2O)c1-c1ccc(CN2CCOCC2)cc1 | 26 | 58 | – |
| CCNC(=O)c1[nH]nc(-c2cc(Cl)c(O)cc2O)c1-c1ccc(CN(CCO)CCO)cc1 | 142 | 7800 | – |
| CCNC(=O)c1noc(-c2cc(Cl)c(O)cc2O)c1-c1ccc(CN2CCS(=O)(=O)CC2)cc1 | 21 | 470 | – |
| CCNC(=O)c1[nH]nc(-c2cc(Cl)c(O)cc2O)c1-c1cccc(CN(C)CCO)c1 | 914 | 9240 | – |
| CCNC(=O)c1[nH]nc(-c2cc(Cl)c(O)cc2O)c1-c1ccc(CNCCS(C)(=O)=O)cc1 | 35 | 2160 | – |
| CCNC(=O)c1noc(-c2cc(-c3ccccc3F)c(O)cc2O)c1-c1ccc(CN2CCOCC2)cc1 | 39 | 87 | – |
| CCNC(=O)c1noc(-c2cc(CC)c(O)cc2O)c1-c1ccc(CN(CC)CC)cc1 | 13 | 41 | – |
| CCNC(=O)c1noc(-c2cc(Cl)c(O)cc2O)c1-c1cccc(N2CCN(C)CC2)c1 | 343 | 2780 | – |
| CCNC(=O)c1noc(-c2cc(Cl)c(O)cc2O)c1-c1ccc(CN2CCN(C)CC2)cc1 | 39 | 125 | – |
| CCNC(=O)c1[nH]nc(-c2cc(Cl)c(O)cc2O)c1-c1cccc(CNCc2ccccc2C(F)(F)F)c1 | 231 | 3110 | – |
| CCNC(=O)c1n[nH]c(-c2cc(Cl)c(O)cc2O)c1-c1ccc(OC)cc1 | – | – | GI50 [2]: 1200 nM; GI50 (SK-MEL-28): 480 nM; GI50 (DU-145): 1200 nM; GI50 (SF-268): 320 nM; GI50 [3]: 2200 nM |
| CCc1cc(-c2[nH]nc(C)c2-c2ccc3c(c2)OCCO3)c(O)cc1O | – | 5800 | – |
| Oc1cc(O)c(-c2n[nH]cc2N2CCN(Cc3ccccc3)CC2)cc1Cl | 600 | 6500 | – |
| CCNC(=O)c1noc(-c2cc(C(C)C)c(O)cc2O)c1-c1ccc(CN2CCOCC2)cc1 [LUMINESPIB] | – | – | AUC(0-t) [4]: 1.72 µM·h; GI50 [2]: 8 nM; GI50 (SK-MEL-28): 5 nM; Cmax [5]: 385 nM; GI50 (DU-145): 5 nM; GI50 (SF-268): 6 nM; CL/F [6]: 0.583 mL/min; GI50 [3]: 6 nM; Vz/F [7]: 0.478 L; half-life [8]: 9.5 h; Tmax [9]: 1 h; T/C at 50 mg/kg (HCT-116 [10]): 49.8% |
| CCNC(=O)c1[nH]nc(-c2cc(Cl)c(O)cc2O)c1-c1cccc(CNCCN2CCCCC2)c1 | 1000 | 25100 | – |
| C=CCNC1=C2C[C@@H](C)C[C@H](OC)[C@H](O)[C@@H](C)/C=C(\C)[C@H](OC(N)=O)[C@@H](OC)/C=C\C=C(/C)C(=O)NC(=CC1=O)C2=O [TANESPIMYCIN] | – | 160 | – |
| CCNC(=O)c1[nH]nc(-c2cc(Cl)c(O)cc2O)c1-c1cccc(CNCCOC)c1 | 728 | 12900 | – |
| CCNC(=O)c1noc(-c2cc(CC)c(O)cc2O)c1-c1ccc(CN2CCOCC2)cc1 | 29 | 25 | – |
| CCNC(=O)c1[nH]nc(-c2cc(Cl)c(O)cc2O)c1-c1cccc(CN2CCC[C@H]2CO)c1 | 1660 | 11400 | – |
| CCNC(=O)c1[nH]nc(-c2cc(Cl)c(O)cc2O)c1-c1ccc(CNC(=O)C2CCCN(C)C2)cc1 (configuration not stated) | 115 | 3470 | – |
| CCNC(=O)c1noc(-c2cc(-c3ccccc3C)c(O)cc2O)c1-c1ccc(CN2CCCCC2)cc1 | 14 | 114 | – |

| SMILES | IC50 (Heat shock protein HSP90) [nM] | GI50 (HCT-116 [1]) [nM] | further results |
| --- | --- | --- | --- |
| CCNC(=O)c1noc(-c2cc(Cl)c(O)cc2O)c1-c1ccc(CN2CCC(O)CC2)cc1 | 28 | 1290 | – |
| CCNC(=O)c1[nH]nc(-c2cc(Cl)c(O)cc2O)c1-c1ccc(CN2CCS(=O)(=O)CC2)cc1 | 27 | 826 | – |
| CCNC(=O)c1noc(-c2cc(-c3ccc(F)cc3)c(O)cc2O)c1-c1ccc(CN2CCCCC2)cc1 | 36 | 35 | – |
| CCNC(=O)c1noc(-c2cc(C(C)C)c(O)cc2O)c1-c1ccc(CN(CC)CC)cc1 | 6 | 6 | – |
| CCNC(=O)c1noc(-c2cc(CC)c(OC)cc2OC)c1-c1ccc(CN2CCOCC2)cc1 | 1560 | 32000 | – |
| CCNC(=O)c1[nH]nc(-c2cc(Cl)c(O)cc2O)c1-c1cccc(CNCCN2CCOCC2)c1 | 431 | 12500 | – |
| CCNC(=O)c1noc(-c2cc(Cl)c(O)cc2O)c1-c1ccc(CNCCS(C)(=O)=O)cc1 | 14 | 1980 | – |
| CCNC(=O)c1noc(-c2cc(Cl)c(O)cc2O)c1-c1ccc(OC)cc1 | – | 120 | AUC(0-t) [4]: 1.73 µM·h; GI50 [2]: 28 nM; GI50 (SK-MEL-28): 45 nM; Cmax [5]: 482 nM; GI50 (DU-145): 230 nM; GI50 (SF-268): 34 nM; CL/F [6]: 1.27 mL/min; GI50 [3]: 220 nM; Vz/F [7]: 0.432 L; half-life [8]: 3.9 h; Tmax [9]: 1 h |
| CCNC(=O)c1[nH]nc(-c2cc(Cl)c(O)cc2O)c1-c1cccc(CN2CCC(CO)CC2)c1 | 2630 | > 80000 | – |
| CCNC(=O)c1noc(-c2cc(C(C)(C)C)c(O)cc2O)c1-c1ccc(CN2CCCCC2)cc1 | 11 | 65 | – |
| CCNC(=O)c1noc(-c2cc(CCc3ccccc3)c(O)cc2O)c1-c1ccc(CN2CCOCC2)cc1 | 32 | 29 | – |
| CCNC(=O)c1noc(-c2cc(CCc3ccc(F)cc3)c(O)cc2O)c1-c1ccc(CN2CCCCC2)cc1 | 26 | 29 | – |
| CCNC(=O)c1noc(-c2cc(Cl)c(O)cc2O)c1-c1ccc(CN2CCCC2)cc1 | 39 | 118 | – |
| CCNC(=O)c1[nH]nc(-c2cc(Cl)c(O)cc2O)c1-c1ccc(CN2CCOCC2)cc1 | 37 | 290 | – |
| CCNC(=O)c1noc(-c2cc(Cl)c(O)cc2O)c1-c1cccc(N2CCOCC2)c1 | 127 | 634 | – |
| CCNC(=O)c1noc(-c2cc(CC)c(OC)cc2O)c1-c1ccc(CN2CCOCC2)cc1 | 15 | 80 | – |
| CCNC(=O)c1noc(-c2cc(C(C)(C)C)c(O)cc2O)c1-c1ccc(CN2CCOCC2)cc1 | 8 | 70 | AUC(0-t) [4]: 0.751 µM·h; Cmax [5]: 203 nM; CL/F [6]: 1.85 mL/min; Vz/F [7]: 0.809 L; half-life [8]: 5 h; Tmax [9]: 1 h |
| CCNC(=O)c1noc(-c2cc(-c3ccccc3)c(O)cc2O)c1-c1ccc(CN2CCOCC2)cc1 | 22 | 152 | – |
| CCNC(=O)c1noc(-c2cc(-c3ccccc3)c(O)cc2O)c1-c1ccc(CN(CC)CC)cc1 | 74 | 91 | AUC(0-t) [4]: 1.25 µM·h; Cmax [5]: 252 nM; CL/F [6]: 0.583 mL/min; Vz/F [7]: 0.736 L; half-life [8]: 14.6 h; Tmax [9]: 4 h |
| CCNC(=O)c1[nH]nc(-c2cc(Cl)c(O)cc2O)c1-c1cccc(CN2CCOCC2)c1 | 222 | 2690 | – |
| CCNC(=O)c1noc(-c2cc(-c3ccccc3)c(O)cc2O)c1-c1ccc(CN2CCCCC2)cc1 | 14 | 86 | AUC(0-t) [4]: 0.995 µM·h; Cmax [5]: 237 nM; CL/F [6]: 1.03 mL/min; Vz/F [7]: 0.652 L; half-life [8]: 7.3 h; Tmax [9]: 1 h |
| CCNC(=O)c1noc(-c2cc(Cl)c(O)cc2O)c1-c1ccc(CN(CC)CC)cc1 | 64 | 56 | – |
| CCNC(=O)c1[nH]nc(-c2cc(Cl)c(O)cc2O)c1-c1cccc(CN2CCN(C(C)=O)CC2)c1 | 1290 | 32700 | – |
| CCNC(=O)c1noc(-c2cc(Cl)c(O)cc2O)c1-c1ccc(CN2CCOCC2)cc1 | – | 83 | – |
| CCNC(=O)c1noc(-c2cc(CCc3ccc(F)cc3)c(O)cc2O)c1-c1ccc(CN2CCOCC2)cc1 | 20 | 39 | – |
| CC(=O)c1ccc(CNC(=O)c2c[nH]nc2-c2cc(Cl)c(O)cc2O)cc1 | 258 | 11600 | – |
